The test system of one data set is PDGFRα. It counts as cell-based, rat. The note with it: for effect on MeHg-induced reductions in levels of PDGFRα: together with MeHg; for effect on Pb- and paraquat-induced reductions in levels of PDGFRα: together with Pb (1 μM) or paraquat (5 μM); for absolute levels of PDGFRα: O-2A/OPCs in PDGF, 24 hr exposure.
Another data set has as its system c-Cbl. The class given is cell-based, rat. The note with it: for effect on MeHg-induced c-Cbl phosphorylation: added 1 h before MeHg. Here is the method:
For the co-immunoprecipitation assay, anti-c-Cbl monoclonal antibody (BD PharMingen) or anti-PDGFRα polyclonal antibody (Santa Cruz Biotechnology) was added to the pre-cleared cell lysates (250 μg of total protein), and the mixtures were gently rocked for 2 h at 4° C. A total of 30 μl of protein A/G agarose was then added to the mixture followed by rotating at 4° C. overnight. The protein A/G agarose was then spun down and washed thoroughly three times. The precipitates were resolved on an 8% SDS-PAGE gel and then were subjected to Western blot analysis using an anti-p-Tyr (for c-Cbl phosphorylation assay) or ubiquitin (for PDGFR ubiquitylation assay) antibody (Santa Cruz Biotechnology).

Data set [1] addresses T1, Fyn (Rattus norvegicus, UniProt Q62844).
T1 construct: 250 μg of total cell lysates were immunoprecipitated with anti-Fyn antibody; endogenous in cells; host or cells: primary rat O-2A/OPCs
It counts as cell-based. Conditions: for effect on MeHg-induced Fyn activation: added 1 h before MeHg. Here is the method: Fyn kinase activity was quantified using the Universal Tyrosine Kinase Assay Kit (Takara, Madison, Wis., United States). O-2A/OPCs exposed to different treatments were solubilized with an equal volume of the extraction buffer provided with the kit for 15 min, and the resulting lysates were centrifuged at 13,000×g for 15 min at 4° C.; 250 μg of total cell lysates were immunoprecipitated with anti-Fyn antibody (Santa Cruz Biotechnology). Following immunoprecipitation, Fyn immune complexes were washed four times with extraction buffer, and then Fyn kinase activities of each sample were assayed using the kit according to the manufacturer's instructions.

Data set [2] relates to O-2A/OPCs. The data set can be described thus: In vitro BrdU incorporation assay. It counts as cell-based, rat. The note with it: with TMX, 2 days. Here is the method:
Cell proliferation was assessed by bromodeoxyuridine (BrdU) incorporation and by using the mouse anti-BrdU mAb IgGl (1:100; Sigma) to label dividing cells. Stained cells on cover slips were rinsed two times in 1×PBS, counterstained with 4′6-diamidino-2-phenylindole (DAPI; Molecular Probes, Eugene, Oreg., United States) and mounted on glass slides with Fluoromount (Molecular Probes). Staining against surface proteins was performed on cultures of living cells or on cells fixed with 2% paraformaldehyde. Staining with intracellular antibodies was performed by permeabilizing cells with ice-cold methanol for 4 min or by using 0.5% Triton for 15 mm on 2% parafomaldhyde-fixed cells. Antibody binding was detected with appropriate fluorescent dye-conjugated secondary antibodies at 10 μg/ml (Southern Biotech, Birmingham, Ala., United States) or Alexa Fluor-coupled antibodies at a concentration of 1 μg/ml (Molecular Probes), applied for 20 min. Anti-BrdU monoclonal antibody was obtained from Sigma.
In general terms: Dividing cells build labelled thymidine or BrdU into new DNA.

The test system of a further data set is Erk1/2. The class given is cell-based, rat. The note with it: for Erk1/2 phosphorylation caused by PDGF: co-exposure 24 hr, TH, BMP4, FGF-2 or NT-3 (10 ng/ml); for NT-3-stimulated Erk1/2 phosphorylation: co-exposure to TH, BMP-4 or FGF-2. Here is the method:
(§1) Cells were deprived of PDGF-AA for 5 h before re-exposure to PDGF-AA (10 ng/ml) for 1 h for Western blot or 6 h for luciferase assays of pathway activation. Transient transfection was performed using Fugene6 (Roche, Basel, Switzerland ) transfection solution according to the manufacturer's protocol. For the luciferase assay, cells seeded in 12-well plates were transfected with a reporter plasmid SRE-Luc(firefly) or NF-κB-Luc(firefly) (BD-Clontech, Palo Alto, Calif., United States) and an internal control plasmid pRLSV40-LUC. Analyses of luciferase activity were performed according to the protocol of the Dual Luciferase Assay System (Promega, Madison, Wis., United States), which uses an internal control of Renilla luciferase for quantification, and relative light units were measured using a luminometer.
(§2) Anti-phosphorylated Erk monoclonal, anti-Erk monoclonal, anti-TrkC polyclonal anti-Fyn polyclonal, anti-EGFR polyclonal, anti-c-Met polyclonal, anti-phospho-tyrosine monoclonal, and anti-PDGFRα polyclonal antibodies were obtained from Santa Cruz Biotechnology (Santa Cruz, Calif., United States). Anti-c-Cbl monoclonal antibody was obtained from BD PharMingen (San Diego, Calif., United States). Anti-phosphorylated Akt monoclonal and anti-Akt polyclonal antibodies were obtained from Cell Signaling Technology (Beverly, Mass., United States). Anti-phosphorylated PDGPRα polyclonal antibody was obtained from Biosource (Carlsbad, Calif., United States). The cell culture samples were collected and lysed in RAPI buffer, whereas dissected tissue samples were sonicated in RAPI buffer. Samples were resolved on SDS-PAGE gels and transferred to PVDF membranes (PerkinElmer Life Science. Wellesley, Mass., United States), After being blocked in 5% skim milk in PBS containing 0.1% Tween 20, membranes were incubated with a primary antibody, followed by incubation with an HRP-conjugated secondary antibody (Santa Cruz Biotechnology). Membranes were visualized using Western Blotting Luminol Reagent (Santa Cruz Biotechnology). All analyses of signaling pathway components were conducted in the presence of ligand for the receptor pathway under analysis (either PDGF-AA for PDGFRα, NT-3 or TrkC, HGF for c-Met, or EGF for EGFR).

Another data set concerns SRE-luciferase reporter. The data set can be described thus: SRE-luciferase reporter assay. The class given is cell-based, rat. The note with it: PDGF plus TH or BMP-4 (10 ng/ml), 24 hr. Here is the method: as §1
A general note: Reporter assays use an easily measured gene product as a stand-in for the process of interest.

Data set [3] relates to Fyn. It counts as cell-based, rat. Conditions: exposure to Aβ (5-20 μM).
Data set [4] concerns O-2A/OPCs. The data set can be described thus: Cell death of O-2A/OPCs on exposure. It counts as cell-based, rat. Here is the method: To generate sufficient numbers of cells for biochemical analysis, cells, were expanded through one to two passages in PDGF+FGF-2 before replating in the presence of PDGF alone. When cells achieved approximately 50% confluence, MeHg, Pb, or paraquat was added to their medium at concentrations indicated. Doses for the toxicants were chosen on the basis of dose-response curves to identify sub-lethal exposure levels, as a reflection of blood and brain toxicant levels of these compounds and, where applicable, on the basis of previous reports. All toxicant concentrations examined were confirmed to cause death of less than 5% of cells over the time course of the experiment.

A further data set has as its system c-Met. It counts as cell-based, rat. The note with it: O-2A/OPCs in HGF, 24 hr exposure.
Text: as §2

The next data set has as its system TrkC. It counts as cell-based, rat. The note with it: O-2A/OPCs in NT-3, 24 hr exposure.
Text: as §2

The mark [5] stands for this setting: added 1 h before Pb or paraquat.
Where [6] appears, read: NAC 1 mM, PP1 100 nM or ICI 182,780 200 nM with TMX.
[7] abbreviates: O-2A/OPCs induced to divide by PDGF, 3-4 hr exposure.

Like-named read-outs stand apart in the source and are kept apart here.

We go through eleven molecules from patent publication US20080171710A1, “The Redox/Fyn/c-Cbl Pathway” (priority 2007, published 2008).

T1 sequence (Q62844 whole entry): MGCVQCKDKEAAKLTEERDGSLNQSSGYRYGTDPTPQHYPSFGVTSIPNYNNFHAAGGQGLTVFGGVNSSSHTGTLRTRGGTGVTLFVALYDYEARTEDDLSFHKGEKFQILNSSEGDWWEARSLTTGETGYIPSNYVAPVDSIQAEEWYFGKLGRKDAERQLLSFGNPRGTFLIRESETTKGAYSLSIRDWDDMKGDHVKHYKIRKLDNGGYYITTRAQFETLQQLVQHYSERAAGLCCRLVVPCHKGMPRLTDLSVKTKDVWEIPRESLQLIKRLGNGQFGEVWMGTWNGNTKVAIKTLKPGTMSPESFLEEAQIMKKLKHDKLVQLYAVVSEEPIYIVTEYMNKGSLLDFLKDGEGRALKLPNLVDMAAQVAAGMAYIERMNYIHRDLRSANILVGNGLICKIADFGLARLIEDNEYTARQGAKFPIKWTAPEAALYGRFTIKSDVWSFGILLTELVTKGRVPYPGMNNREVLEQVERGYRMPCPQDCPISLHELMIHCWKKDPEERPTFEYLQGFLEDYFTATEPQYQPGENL

Turning to `CN(C)CCCn1cc(C2=C(c3c[nH]c4ccccc34)C(=O)NC2=O)c2ccccc21` [BIM-1, bisindoleylmaleimide I], in the data set with PDGFRα, the “effect on MeHg-induced reductions in levels of PDGFRα” value is “did not protect”; the “effect on Pb- and paraquat-induced reductions in levels of PDGFRα” value is reported as “did not protect”. Moreover, the “effect on MeHg-induced c-Cbl phosphorylation” value with c-Cbl is given as “did not prevent”. In addition, the “effect on Pb- and paraquat-induced c-Cbl phosphorylation” value with c-Cbl (setting [5]) is listed as “did not prevent”. Further, the “effect on MeHg-induced Fyn activation” value at Fyn [1] is “did not prevent”. Besides, the “effect on Pb- and paraquat-induced Fyn activation” value at Fyn [1] (setting [5]) was “did not prevent”.
As to `C[C@]12CC[C@@H]3c4ccc(O)cc4C[C@@H](CCCCCCCCC[S+]([O-])CCCC(F)(F)C(F)(F)F)[C@H]3[C@@H]1CC[C@@H]2O` (stereo partly shown) [ICI 182780], the “effect on TMX effect on cell proliferation” value with O-2A/OPCs [2] is “blocked”. In the data set with PDGFRα (setting [6]), the “effect on TMX-induced reductions in levels of PDGFRα” value is listed as “rescued”. The “effect on TMX-induced activation of c-Cbl” value in the data set on c-Cbl (setting [6]) was “prevented”. In addition, at Fyn [1] (setting [6]), the “effect on TMX-induced activation of Fyn” value was “prevented”.
Consider `CC(C)(C)n1nc(-c2ccc(Cl)cc2)c2c(N)ncnc21` [PP2], for which, in the data set on c-Cbl, the “effect on MeHg-induced c-Cbl phosphorylation” value is on record as “blocked”. For the same molecule, on Fyn [1], the “effect on MeHg-induced Fyn activation” value was “blocked”.
In the case of `N[C@@H](Cc1cc(I)c(Oc2ccc(O)c(I)c2)c(I)c1)C(=O)O` [TH, thyroid hormone, reference compound], the “absolute levels of PDGFRα” value in the data set with PDGFRα was “reductions”. Besides, in the data set with Erk1/2, the “Erk1/2 phosphorylation caused by PDGF” value was “reduce” and the “NT-3-stimulated Erk1/2 phosphorylation” value is “not affected”. Moreover, in the data set on SRE-luciferase reporter, the SRE-reporter gene expression result is reported as “greatly reduces”.
As for `C[C@@H]1C[C@@H]([C@H](O)CC2CC(=O)NC(=O)C2)C(=O)[C@@H](C)C1` [cycloheximide], in the data set on PDGFRα (cycloheximide 1 μg/ml), the “levels of PDGFRα on inhibition of protein synthesis” value is “reductions”.
With `O=C1N[C@H](C(=O)O)CS1` [proeysteinc, procysteine], the “effect on Pb- and paraquat-induced reductions in levels of PDGFRα” value with PDGFRα is recorded as “protected”.
On to “Aβ(1-42): amino acids 1-42 of amyloid beta protein”, for which the Fyn phosphorylation entry in the data set with Fyn [3] was “phosphorylated”. Also, the cell death result in the data set on O-2A/OPCs [4] (5-10 μM Aβ(1-42), 48 hrs) is reported as “little cell death”. Besides, the “concentration inducing progenitor cell death” value with O-2A/OPCs [4] (O-2A/OPCs) is 20 µM. Further, in the data set with PDGFRα (exposure to Aβ), the “levels of PDGFRα” value was “reduced”. In the data set on Erk1/2 (exposure to Aβ(1-42)), the “Erk1/2 phosphorylation induced by NT-3” value is given as “had no effect” and the “PDGF-mediated induction of Erk1/2 phosphorylation” value is “inhibited”. The c-Cbl phosphorylation entry in the data set on c-Cbl (exposure to Aβ (5-20 μM)) is reported as “phosphorylated”.
On to bone morphogenetic protein-4 [BMP-4], for which the “absolute levels of PDGFRα” value in the data set on PDGFRα is “reductions”. In addition, in the data set with Erk1/2, the “Erk1/2 phosphorylation caused by PDGF” value is given as “reduce” and the “NT-3-stimulated Erk1/2 phosphorylation” value is given as “not affected”. Moreover, in the data set with c-Cbl (setting [7]), the c-Cbl phosphorylation entry is “increased phosphorylation”. Further, in the data set on SRE-luciferase reporter, the SRE-reporter gene expression result is reported as “greatly reduces”. In the data set with Fyn [1] (differentiation inducers TH and BMP), the fyn activation result is recorded as “activated”. Besides, in the data set on c-Met, the c-Met levels result is “decreases”. For the same molecule, the “levels of TrkC” value with TrkC is recorded as “unaffected”.
In the case of fibroblast growth factor-2 [FGF-2], the “levels of PDGFRα in the presence of actinomycin D” value in the data set with PDGFRα (FGF-2 10 ng/ml and PDGF, 24 hr) is “still show increased levels”. Moreover, the “absolute levels of PDGFRα” value with PDGFRα is given as “increase”. In the data set with Erk1/2, the “Erk1/2 phosphorylation caused by PDGF” value is on record as “enhances signaling” and the “NT-3-stimulated Erk1/2 phosphorylation” value is given as “not affected”. The c-Cbl phosphorylation result in the data set on c-Cbl (setting [7]) is reported as “caused a reduction”. In the data set on c-Met, the c-Met levels result is given as “increased”. Besides, the “levels of TrkC” value in the data set with TrkC is “unaffected”.

B1: neurotrophin-3 (protein, UniProt P20783 139-257, looked up)
Neurotrophin-3: YAEHKSHRGEYSVCDSESLWVTDKSSAIDIRGHQVTVLGEIKTGNSPVKQYFYETRCKEARPVKNGCRGIDDKHWNSQCKTSQTYVRALTSENNKLVGWRWIRIDTSCVCALSRKIGRT
notes: signaling molecule that enhances self-renewal
With B1, the “absolute levels of PDGFRα” value with PDGFRα is recorded as “increase”. Further, the “Erk1/2 phosphorylation caused by PDGF” value in the data set with Erk1/2 is reported as “enhances signaling”. In addition, in the data set with c-Cbl (setting [7]), the c-Cbl phosphorylation result is recorded as “caused a reduction”. Further, the c-Met levels result in the data set on c-Met is given as “increased”. The “levels of TrkC” value in the data set with TrkC is listed as “unaffected”.

B2: scrambled (Scr) RNAi: scrambled negative control for c-Cbl RNAi, SEQ ID NO: 7 and 8 (nucleic acid)
chain 1: TTTAAACCCGGCCCTTTGGTTCAAGAGACCAAAGGGCCGGGTTTAAATTTTTT
chain 2: AATTAAAAAATTTAAACCCGGCCCTTTGGTCTCTTGAACCAAAGGGCCGGGTTTAAAGGCC
On to B2, for which the “effect on MeHg-induced reductions in levels of PDGFRα” value in the data set with PDGFRα is on record as “had no effect”.
